Data as given in ChEMBL document CHEMBL1131992, “Bifunctional 2-naphthyl propargylic sulfones exhibiting high DNA intercalating and alkylating activity” (Bioorg Med Chem Lett, 1999).

Tests used:
Nucleic Acid = assay: DNA cleavage activity as 70% FormI DNA cleavage; assay type: nucleic-acid assay
P388 = assay: Cytotoxicity against P388 cell line(mouse T cell leukemia); assay type: functional, cell-based

C70 (Nucleic Acid)	SMILES	IC50 (P388)
800 µM	CCCC(O)C#CCS(=O)(=O)c1ccccc1 (stereo not drawn)	–
1000 µM	O=S(=O)(CC#CCCCC#CCO)c1ccccc1	–
10 µM	O=S(=O)(CC#CCCCC#CCO)c1ccc2ccccc2c1	10 µM
5 µM	CCCC(O)C#CCS(=O)(=O)c1ccc2ccccc2c1 (stereo not drawn)	–
–	O=C(OCC#CCCCC#CCS(=O)(=O)c1ccc2ccccc2c1)c1ccc2cc3ccccc3cc2c1	17 µM
–	O=C(OCC#CCCCC#CCS(=O)(=O)c1ccc2ccccc2c1)c1cccc2cc3ccccc3cc12	42 µM
–	O=C(OCC#CCCCC#CCS(=O)(=O)c1ccc2ccccc2c1)c1ccc2c(c1)C(=O)c1ccccc1C2=O	41 µM
